Measured values from ChEMBL document CHEMBL1149842, “Purine alkaloids from the South China Sea gorgonian Subergorgia suberosa” (J Nat Prod, 2008).
In brackets after ≈: the same amount, converted by molar mass.

Test system: MDA-MB-231
Assay: Cytotoxicity against human MDA-MB-231 cells by MTT assay
Assay type: functional, cell-based

SMILES: C[C@H]1CC[C@H]2[C@@H]3CC(=O)[C@H](Cn4c(O)nc5c(O)ncnc54)[C@@]13CC2(C)C
- IC50: 8.87 µg/mL (≈ 23.9 µM)
